This is an account of results in US5306620A, “Antibodies that bind to a ligand-induced binding site on integrin and induce integrin activation” (The Scripps Research Institute, priority 1990, dated 1994).

Residues, ends and D or L forms follow the SMILES beside them.

The target in test [1] is T1, αIIb β3 on A5 cells (Homo sapiens, UniProt P05106+P08514).
T1 construct: expressed in transfected cells
The test is described as follows: PAC1-binding assay (FACS) on A5 cells. In kind it is cell-based. Conditions: for stimulation of PAC1 binding to A5 cells by platelet agonists: ADP 10 to 50 uM, thrombin 1 to 5 units/ml, epinephrine 4 to 200 uM, phorbol myristate acetate 5 to 500 nm, ionomycin 5 to 200 nM. As for the experimental part:
(§1) Antibody binding to cells was analyzed by flow cytometry, also referred to as fluorescence-activated cell sorting (FACS). Cells for flow cytometric analysis were harvested with 3.5 mM EDTA and an aliquot of 5×10^5 cells was pelleted, resuspended in media or Tyrodes buffer containing a specific first antibody, and incubated for 20 minutes on ice with or without peptide ligands. Cells were pelleted, washed once, and incubated for 20 minutes with the second antibody, FITC-conjugated goat anti-mouse IgG (Tago, Burlingame, Calif.). Cells were then pelleted, resuspended in 0.5 ml media or Tyrodes and analyzed on a FACS IV analyzer (Becton-Dickinson, San Jose, Calif.).
To that end, PAC1 antibody was fluoresceinated with FICT as described by Taub et al., J. Biol. Chem., 264:259-265 (1989) to form FITC-PAC1 and used directly in flow cytometry. Briefly, 5×10^5 cells were harvested and resuspended to 50 ul in Tyrodes buffer [Frelinger et al., J. Biol. Chem., 265:6346-6352 (1990)]containing 10 ug/ml of FITC-PAC1 in the presence or absence of additional agonists. After a 30 minute incubation at 37 degrees, the samples were diluted to 0.5 ml with Tyrodes and analyzed by flow cytometry as described in Example 7.
To evaluate the capacity of a monoclonal antibody to activate (i.e., to increase specific ligand binding affinity of) the integrin GPIIb-IIIa, an assay was developed that measures PACT binding to GPIIb-IIIa bearing cells using the FACS analysis as described in Example 7.
In the PAC1-binding assay for integrin-activating antibody, the activating antibody was admixed with an integrin binding cell at a concentration of about 5 uM antibody. For GPIIb-IIIa, a suspension of cells was prepared as in Example 9, activating antibody was admixed at 5 uM and the admixture was maintained for 20 minutes on ice. Thereafter FITC-PAC1 was added as described in Example 9 and the FACS protocol followed as in Example 9 to measure PAC1 binding.

Test [2] concerns the target T2, GPIIb-IIIa on platelets (Homo sapiens, UniProt P05106+P08514).
T2 construct: endogenous in cells; host or cells: platelets
The test can be described thus: PAC1-binding assay (FACS) on platelets. In kind it is cell-based. As for the experimental part:
as §1
In the PAC1-binding assay for integrin-activating antibody, the activating antibody was admixed with an integrin binding cell at a concentration of about 5 uM antibody.

For test [3], the target named is T1, αIIb β3 on A5 cells. The test can be described thus: Soluble 125I-fibrinogen binding to A5 cells. In kind it is cell-based. How it is done:
FIG. 4 illustrates the equilibrium binding of soluble fibrinogen (Fg) to Ab-62 stimulated (activated) A5 cells when measured as in Example 10. A5 cells at a concentration of 10^6 per ml were admixed with 6 uM of Sepharose-purified AB-62 and maintained at 22 C. for 30 minutes to activate the integrin. Iodinated Fg was then admixed in varying concentrations from 0.01 to 1 nM. After a 60 minute maintenance period, the bound ligand was separated from free ligand by centrifugation through 0.3 ml of 20% sucrose. The amount of radiolabelled ligand associated with the cell pellet was determined by gamma detection. Saturable binding was measured in three different experiments and plotted versus the input Fg concentration to obtain an averaged profile. A Scatchard replot of the binding data was made and is shown in the insert.
An independent measure of integrin activation was made by detecting the ability of a cell containing the integrin to bind soluble fibrinogen (Fg) that had been labelled with ^125 I. Fg was isolated and labelled with ^125 I by standard methods as described by Marguerie et al., J. Biol. Chem., 255:154-161 (1980) to form ^125 I-Fg. Thereafter, the binding of ^125 I-Fg to transfected cells was assayed as described previously for platelets [Marguerie et al., J. Biol. Chem., 255:154-161 (1980)]. Binding was initiated by the addition of cells to radiolabelled Fg and incubation at 37 degrees for 30 minutes. Bound ligand was separated from free ligand by centrifugation through 0.3 ml of 20% sucrose and the amount of radiolabelled ligand associated with the cell pellet determined by gamma detection.
Background binding in this assay detected about 30,000 molecules of Fg bound per integrin bearing cell, whereas maximum Ab-62 stimulated A5 cells bound about 95,000 molecules of Fg per cell.
Equilibrium binding of soluble Fg to Ab-62 stimulated (activated) A5 cells was carried out to better characterize Fg binding. […] A5 cells (10^6 per ml) were incubated with 6 uM Sepharose-purified Ab-62 for 30 minutes at 22 C. to activate the integrin. Thereafter ^125 I-Fg was admixed in varying concentrations from 0.01 to 1 nM. After 60 minutes, bound Fg was measured as described above after centrifugation of the cells through sucrose.
Saturable binding was measured in three different experiments and plotted versus the input Fg concentration to obtain average data which is shown in FIG. 4. A Scatchard replot of the binding data was also made and is shown in the inset to FIG. 4. The binding of the various concentrations of Fg to activated A5 cells at steady state was analyzed by use of the "Ligand" computer program. […] There was day to day variation in the quantity of αIIb β3 expressed as measured by the binding of the 2G12 antibody (150,000 to 440,000 sites/cell) as well as in the number of Fg receptors (138,000 to 360,000 sites/cell). The ratio of Fg receptors to αIIb β3 expressed per cell on a given day was 0.83±0.05, thus virtually all of the recombinant αIIb β3 was functional with respect to Fg binding.

In test [4] the target is T3, αIIb β3 on fixed platelets (Homo sapiens, UniProt P05106+P08514).
T3 construct: To fix platelets, blood from a normal donor was centrifuged at 1,000 rpm; endogenous in cells; host or cells: platelets from blood of a normal donor, fixed with 0.1% paraformaldehyde
T3 sequence (P08514 32-887 limits assumed): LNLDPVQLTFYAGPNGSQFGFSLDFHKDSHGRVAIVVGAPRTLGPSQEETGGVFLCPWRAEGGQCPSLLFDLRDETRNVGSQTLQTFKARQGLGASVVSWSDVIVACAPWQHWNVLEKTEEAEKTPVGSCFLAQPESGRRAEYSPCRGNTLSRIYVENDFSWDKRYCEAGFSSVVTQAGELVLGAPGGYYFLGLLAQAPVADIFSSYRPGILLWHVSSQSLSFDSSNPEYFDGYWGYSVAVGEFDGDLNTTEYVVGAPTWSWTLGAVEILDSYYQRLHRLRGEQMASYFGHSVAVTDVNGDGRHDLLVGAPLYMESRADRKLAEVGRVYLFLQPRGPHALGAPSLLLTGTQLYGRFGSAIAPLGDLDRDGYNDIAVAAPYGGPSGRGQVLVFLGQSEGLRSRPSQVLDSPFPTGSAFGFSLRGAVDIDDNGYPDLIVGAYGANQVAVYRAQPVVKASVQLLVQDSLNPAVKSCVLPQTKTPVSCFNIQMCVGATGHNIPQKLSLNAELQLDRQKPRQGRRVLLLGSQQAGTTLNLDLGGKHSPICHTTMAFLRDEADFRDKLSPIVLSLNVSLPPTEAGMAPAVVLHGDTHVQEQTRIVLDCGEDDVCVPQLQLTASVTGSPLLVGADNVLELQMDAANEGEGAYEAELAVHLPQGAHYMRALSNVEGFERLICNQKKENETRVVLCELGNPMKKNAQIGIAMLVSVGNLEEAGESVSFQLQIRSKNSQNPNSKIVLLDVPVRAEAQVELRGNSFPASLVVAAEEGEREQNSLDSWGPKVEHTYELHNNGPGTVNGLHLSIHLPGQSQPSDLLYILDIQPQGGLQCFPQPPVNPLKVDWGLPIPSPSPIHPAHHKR
T3 sequence (P08514 891-1039 partner limits assumed): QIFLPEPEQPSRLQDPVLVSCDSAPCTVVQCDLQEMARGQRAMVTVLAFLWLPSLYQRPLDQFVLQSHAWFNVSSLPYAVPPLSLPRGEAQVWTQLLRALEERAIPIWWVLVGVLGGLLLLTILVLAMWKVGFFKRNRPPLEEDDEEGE
T3 sequence (P05106 27-788): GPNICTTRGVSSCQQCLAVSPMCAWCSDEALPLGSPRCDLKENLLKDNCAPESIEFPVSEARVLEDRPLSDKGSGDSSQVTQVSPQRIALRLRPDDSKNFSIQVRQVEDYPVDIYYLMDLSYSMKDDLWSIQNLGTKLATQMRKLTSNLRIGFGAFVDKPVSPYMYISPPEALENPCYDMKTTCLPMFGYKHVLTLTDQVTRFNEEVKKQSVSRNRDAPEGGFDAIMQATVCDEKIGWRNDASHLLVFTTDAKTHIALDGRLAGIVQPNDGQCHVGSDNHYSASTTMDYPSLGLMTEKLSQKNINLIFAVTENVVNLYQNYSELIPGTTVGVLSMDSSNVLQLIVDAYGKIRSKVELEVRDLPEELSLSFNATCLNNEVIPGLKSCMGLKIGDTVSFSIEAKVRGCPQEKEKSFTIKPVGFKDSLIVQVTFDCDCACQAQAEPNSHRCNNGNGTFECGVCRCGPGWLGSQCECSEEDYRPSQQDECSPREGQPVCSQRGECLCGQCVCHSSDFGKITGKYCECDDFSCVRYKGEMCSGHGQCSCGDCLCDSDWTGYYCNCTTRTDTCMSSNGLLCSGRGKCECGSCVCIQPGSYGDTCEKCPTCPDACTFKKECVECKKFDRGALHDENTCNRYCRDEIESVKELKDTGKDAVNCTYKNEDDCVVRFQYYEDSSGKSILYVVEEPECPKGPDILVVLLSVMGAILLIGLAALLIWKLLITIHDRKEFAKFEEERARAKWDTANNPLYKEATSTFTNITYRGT
The test is described as follows: FITC-PAC1 binding to formaldehyde fixed platelets. In kind it is cell-based. To be noted: 0.1% paraformaldehyde; PMA 50 nM, thrombin 1 unit/ml. As for the experimental part: The data described in Examples 10 and 11 established that Fab fragments of the activating antibodies P41 or Ab62 activate A5 cells and platelets to express αIIb β3 dependent receptors for fluid phase Fg and PAC1. To determine if this activation required intracellular signal transduction events, the capacity of these Fabs to induce PACI binding to formaldehyde fixed platelets was measured.
To fix platelets, blood from a normal donor was centrifuged at 1,000 rpm for 20 minutes and the resulting platelet rich plasma incubated with 2 ug/ml PGE1 and 1 mM theophylline for 15 minutes at room temperature followed by a 15 minute room temperature incubation with 0.1% paraformaldehyde. Fixed or normal platelets were then analyzed for FITC-PAC1 binding as described above in Example 9 in the presence of platelet agonists, or activating antibody P41.

Test [5] deals with T4, solubilized αIIb β3 from platelets (Homo sapiens, UniProt P05106+P08514).
T4 construct: αIIb β3 was solubilized from platelets; endogenous in cells; host or cells: human platelets, octylglucoside lysate
T4 sequence (P08514 32-887 limits assumed): as the sequence (P08514 32-887 limits assumed) above
T4 sequence (P08514 891-1039 partner limits assumed): as the sequence (P08514 891-1039 partner limits assumed) above
T4 sequence (P05106 27-788): as the sequence (P05106 27-788) above
The test can be described thus: Solution phase assay: 125I-Fg binding to solubilized αIIb β3. In kind it is biochemical. How it is done: To determine if activating antibodies could activate αIIb β3 extracted away f rom the membrane milieu, the activating capacity to stimulate Fg binding in a solution phase was assayed. In this assay, αIIb β3 was solubilized from platelets, incubated in the presence or absence of activating monoclonal antibodies, and then bound to microtiter plates coated with a non-activating monoclonal anti β3 antibody.
The platelet pellet was resuspended and solubilized in ice cold 10 mM Hepes containing 150 mM NaCl, 50 mM octyl-B-D-glucoypyranoside (Calbiochem, La Jolla, Calif.) 1 mm PMSF, 50 ng/ml PGE, 1 mM CaCl2, 1 mM MgCl2, 50 uM leupeptin and 1 mg/ml N-ethylmaleimide (Sigma, St. Louis, Mo.) and centrifuged at 100,000 g for 30 minutes. […] The microtiter wells were incubated at 4 C. overnight, washed twice with a modified Tyrodes-Hepes buffer (2.5 mM Hepes, 150 mM NaCl, 2.5 mM KCl, 1 mM MgCl2, 12 mM NaHCO3, 5.5 mM D-glucose and 1 mg/ml BSA, pH 7.4) containing 50 MM octyl-B-D-glucopyranoside and 0.1 uM activating monoclonal antibody and then twice in Tyrodes-Hepes buffer only to form αIIb β3 -bound microtiter wells. […] Bound radioactivity was counted after 2 washes with Tyrodes-Hepes buffer.

Test [6] has as its target T2, GPIIb-IIIa on platelets. The test can be described thus: 125I-anti-LIBS1 binding to platelets in the presence of fibrinogen. To be noted: ADP (10 uM) stimulated platelets, 125I-anti-LIBS1 Fab 0.8 uM, 37 C 30 minutes; read-out: concentration of fibrinogen required for a half-maximal increase in anti-LIBS1 binding. How it is done: FIG. 1 illustrates anti-LIBS1 binding to platelets in the presence of ADP-stimulated fibrinogen as described in Example 4. Gel-filtered platelets (1 ×10^8 platelets/ml) were incubated with ^125 I-labeled anti-LIBS1 and varied concentrations of fibrinogen in the presence (ADP-stimulated) or absence (Control) of ADP (10 uM) for 30 minutes at 37 C. Platelet-bound radioactivity was separated from free by centrifuging the platelets through a layer of sucrose. Results are shown as the average of triplicate determinations +/ - one standard deviation.
Platelet rich plasma (PRP) was prepared as in Example 1A and divided into 2 aliquots. In one aliquot, the platelets were stimulated to express functional GPIIb-IIIa (fibrinogen receptors) by admixture of adenosine diphosphate (ADP) to a 10 uM final concentration to produce ADP-stimulatedplatelets. As a negative control, the second aliquot of PRP received no stimulus to produce non-stimulated platelets.
^125 I-labeled LIBSA (anti-LIBS1) Fab fragments, prepared by usual techniques from the ^125 I-labeled antibodies described in Example 2, were then admixed to a 0.8 uM final concentration with several samples of each of the PRP aliquots in the presence of varying concentrations of fibrinogen. […] The amount of ^125 I-anti LIBS1 associated with the pellet was then determined by gamma counting.

T2 sequence (P08514 32-887 limits assumed): as the sequence (P08514 32-887 limits assumed) above
T2 sequence (P08514 891-1039 partner limits assumed): as the sequence (P08514 891-1039 partner limits assumed) above
T2 sequence (P05106 27-788): as the sequence (P05106 27-788) above
T1 sequence (P08514 32-887 limits assumed): as the sequence (P08514 32-887 limits assumed) above
T1 sequence (P08514 891-1039 partner limits assumed): as the sequence (P08514 891-1039 partner limits assumed) above
T1 sequence (P05106 27-788): as the sequence (P05106 27-788) above

As to `Nc1ncnc2c1ncn2[C@@H]1O[C@H](COP(=O)(O)OP(=O)(O)O)[C@@H](O)[C@H]1O` [ADP, adenosine diphosphate], in test [1], the “stimulation of PAC1 binding to A5 cells by platelet agonists” value (from here on “stimulation of PAC1 binding to A5 cells”) is “failed to stimulate”. Moreover, in test [2] (ADP activated platelets, FACS), the “PAC1 staining of agonist activated platelets” value is on record as “stained brightly”.
`N=C(N)NCCC[C@H](NC(=O)CN)C(=O)NCC(=O)N[C@@H](CCC(=O)O)C(=O)N[C@@H](CO)C(=O)N1CCC[C@H]1C(=O)O` [GRGESP] (H-GRGESP-OH): the “inhibition of soluble 125I-Fg binding to activated A5 cells” value in test [3] is recorded as “not inhibited”.
For `CNC[C@H](O)c1ccc(O)c(O)c1` [epinephrine], the “stimulation of PAC1 binding to A5 cells” value in test [1] is listed as “failed to stimulate”.
For the compound `C[C@H](CCC(=O)O)C[C@H](C)C[C@H](C)C(=O)/C=C(\O)[C@H](C)C[C@H](C)C/C=C/[C@@H](C)[C@@H](O)[C@@H](C)[C@@H](O)C[C@@H]1CC[C@@](C)([C@H]2CC[C@@](C)([C@@H](C)O)O2)O1` [ionomycin], the “stimulation of PAC1 binding to A5 cells” value in test [1] was “failed to stimulate”.
As to `CCCCCCCCCCCCCC(=O)O[C@@H]1[C@@H](C)[C@@]2(O)[C@@H](C=C(CO)C[C@]3(O)C(=O)C(C)=C[C@@H]23)[C@@H]2C(C)(C)[C@]12OC(C)=O` [phorbol myristate acetate], the “PAC1 response after fixation of platelets” value in test [4] is listed as “completely abrogated”. The “stimulation of PAC1 binding to A5 cells” value in test [1] is recorded as “failed to stimulate”.
Turning to PAC1, the “reaction of PAC1 with αIIb β3 in the A5 cell line” value in test [1] (FITC-PAC1 10 ug/ml, no agonist) is listed as “did not react”. Further, the “reaction of PAC1 with resting platelets” value in test [2] (FITC-PAC1 10 ug/ml, no agonist) is “did not react”.
For fibrinogen, the non-saturable binding in test [3] (Ab-62 activated A5 cells) is given as 2.2±0.4×10^-3. Further, in test [3] (Ab-62 activated A5 cells, 10^6 per ml), the receptor concentration is 2.3 ± 0.3 nM. Also, the “Fg binding sites per cell” value in test [3] (Ab-62 activated A5 cells, Ligand program fit) is reported as 138,000 sites/cell. In test [3] (Ab-62 stimulated A5 cells), the “reversibility of Fg binding” value is recorded as above 75% and the “time for Fg binding to reach steady state” value was at most 30 min. Further, the “number of Fg receptors” value in test [3] (activated A5 cells, day to day variation) is given as 138,000 to 360,000 sites/cell. For the same compound, in test [3] (on a given day), the “ratio of Fg receptors to αIIb β3 expressed per cell” value was 0.83±0.05. Also, the “inhibition of Fg binding to stimulated captured receptor” value in test [5] is listed as “inhibition”. The EC50 in test [6] is around 700 nM.
As for thrombin, in test [4], the “PAC1 response after fixation of platelets” value was “completely abrogated”. Further, the “stimulation of PAC1 binding to A5 cells” value in test [1] is listed as “failed to stimulate”.
